Laboratory results taken from patent US20230181584A1, “METHOD OF TREATING CANCER HAVING AN ACTIVATED HEDGEHOG PATHWAY” (Endeavor Biomedicines, Inc., priority 2021, published 2023).

Experiments:
[1] = background statement on Hh pathway inhibitors; cited from earlier work
advanced cancer [2] = experiment: HHBB: Phase 1 dose-escalation study of taladegib in patients with advanced cancer; assay type: in vivo, human; conditions: N=84, monotherapy, RECIST v1.1
Excerpt: (§1) Approximately 192 study participants have received at least one dose of taladegib in sponsor-initiated and -controlled trials for the treatment of advanced cancers. The clinical trials were: • q. HHBB: Phase 1 dose-escalation study to evaluate the safety and tolerability of taladegib in patients with advanced cancer. • r. HHBE: Phase Ib/2 double-blind randomized study of the Human smoothened (hSmo) antagonist taladegib in combination with carboplatin and etoposide followed by taladegib versus carboplatin and etoposide plus placebo followed by placebo in patients with extensive stage small cell lung cancer (SCLC). • s. HHBH: Phase 1 study of taladegib in Japanese patients with advanced solid tumors. • t. HIPROC: An investigator-initiated Phase 1a/1b dose-escalation study of taladegib in combination with weekly intravenous paclitaxel in patients with advanced solid cancers. • u. HHBF: A Phase 1 ^14C metabolism study of 100 mg of taladegib in healthy subjects. • v. HHBG: A Phase 1 single ascending dose study of taladegib in healthy subjects.
(§2) Participants include approximately 156 advanced cancer patients from studies HHBB (N=95), HHBE (N=26), HHBH (N=19), HIPROC (N=16) and 36 healthy volunteers from studies HHBG (N=30) and HHBF (N=6).
(§3) The primary tumor type enrolled was BCC. Additionally, responses in medulloblastoma (monotherapy), SCLC (in combination with carboplatin and etoposide) and ovarian cancer (in combination with paclitaxel) were also observed.

advanced cancer [3] = experiment: HHBB addendum; assay type: in vivo, human; conditions: N=11, RECIST v1.1
Excerpt: as §3

advanced solid tumors = experiment: HHBH: Phase 1 study of taladegib in Japanese patients with advanced solid tumors; assay type: in vivo, human; conditions: N=19, RECIST v1.1
Excerpt: as §1, §2, §3

[4] = tested on: extensive stage small cell lung cancer (SCLC); experiment: HHBE: Phase Ib/2 study of taladegib with carboplatin and etoposide in extensive stage SCLC; assay type: in vivo, human; conditions: in combination with carboplatin and etoposide, N=26, RECIST v1.1
Excerpt: as §1, §2, §3

advanced solid cancers = experiment: HIPROC: Phase 1a/1b dose-escalation study of taladegib with weekly intravenous paclitaxel; assay type: in vivo, human; conditions: in combination with weekly intravenous paclitaxel, N=16, RECIST v1.1
Excerpt: as §1, §2, §3

advanced cancer [5] = experiment: Clinical benefit across all completed studies of taladegib in advanced cancer (total); assay type: in vivo, human
Excerpt: as §1, §2, §3

[6] = Safety in clinical trials of taladegib (healthy volunteers and advanced cancer patients); assay type: in vivo, human
Excerpt: as §1, §2
As expected, AEs associated with chemotherapy were also observed when taladegib was used in combination with anti-neoplastic agents.

Gli1 activity = conditions: Daoy cells; as described in U.S. Pat. No. 9,000,023; read-out: IC50, inhibition of Gli1 activity; cited from earlier work
[7] = Total of all completed studies, N=156

## CC1=C2C[C@H]3[C@@H](CC[C@@H]4C[C@H](NS(C)(=O)=O)CC[C@@]43C)[C@@H]2CC[C@@]2(C1)O[C@@H]1C[C@H](C)CN[C@H]1[C@H]2C [saridegib]
[1]
  Toxicity: unacceptable toxicity

## CN(C(=O)c1ccc(F)cc1C(F)(F)F)C1CCN(c2nnc(-c3ccnn3C)c3ccccc23)CC1 [Taladegib, 4-Fluoro-N-methyl-N-(1-(4-(1-methyl-1H-pyrazol-5-yl)phthalazin-1-yl)piperidin-4-yl)-2-(trifluoromethyl)benzamide]
Advanced cancer [2]
  CR (complete response), number of patients: 5
  CR (complete response), percent of patients: 6%
  Clinical Benefit, number of patients: 48
  Clinical Benefit, percent of patients: 57%
  PR (partial response), number of patients: 17
  PR (partial response), percent of patients: 20%
Advanced cancer [3]
  CR (complete response), number of patients: 1
  CR (complete response), percent of patients: 9%
  Clinical Benefit, number of patients: 4
  Clinical Benefit, percent of patients: 36%
  PR (partial response), number of patients: 0
Advanced solid tumors
  CR (complete response), number of patients: 0 (0%)
  CR (complete response), percent of patients: 0 (0%)
  Clinical Benefit, number of patients: 5
  Clinical Benefit, percent of patients: 26%
  PR (partial response), number of patients: 1
  PR (partial response), percent of patients: 5%
[4]
  CR (complete response), number of patients: 0 (0%)
  CR (complete response), percent of patients: 0 (0%)
  Clinical Benefit, number of patients: 21
  Clinical Benefit, percent of patients: 81%
  PR (partial response), number of patients: 14
  PR (partial response), percent of patients: 54%
Advanced solid cancers
  CR (complete response), number of patients: 0 (0%)
  CR (complete response), percent of patients: 0 (0%)
  Clinical Benefit, number of patients: 10
  Clinical Benefit, percent of patients: 62%
  PR (partial response), number of patients: 4
  PR (partial response), percent of patients: 25%
Advanced cancer [5]; [7]
  CR (complete response), number of patients: 6
  CR (complete response), percent of patients: 4%
  Clinical Benefit, number of patients: 94
  Clinical Benefit, percent of patients: 60%
  PR (partial response), number of patients: 42
  PR (partial response), percent of patients: 27%
Advanced cancer [5]; across all four multiple-dose studies in patients
  Clinical (RECIST v1.1) responses by dose: responses were observed at all doses
Advanced cancer [5]; in combination with carboplatin and etoposide
  Responses in SCLC: observed
Advanced cancer [5]; in combination with paclitaxel
  Responses in ovarian cancer: observed
Advanced cancer [5]; monotherapy
  Responses in medulloblastoma: observed
[6]; advanced cancer patients, monotherapy and combination with anti-neoplastic agents
  Safety profile: manageable safety profile
[6]; as a monotherapy
  Most commonly observed AEs: nausea, diarrhea, dysgeusia, fatigue, decreased appetite, alopecia, vomiting, muscle spasm, constipation, weight decrease, and headache
[6]; on the basis of preclinical and clinical data and information for molecules in the same therapeutic class
  Important potential risks associated with treatment: hepatic injury, embryotoxicity and teratogenicity, and rhabdomyolysis
Gli1 activity
  IC50: ~2.4 nM

## CS(=O)(=O)c1ccc(C(=O)Nc2ccc(Cl)c(-c3ccccn3)c2)c(Cl)c1 [vismodegib]
[1]
  Toxicity: unacceptable toxicity
